The test system of data set [1] is Human Neuroblastoma cell line (SH-SY5Y). In words: Cytotoxicity test / growth inhibition, SH-SY5Y. The class given is cell-based. The following applies: 48 hours, cell counting. The protocol:
Cells were purchased from American Type Culture Collection (ATCC, Manassas, Va., USA). The LNCaP (ATCC® CRL-1740™), A549 (ATCC® CCL-185™), MDA-MB-231 (ATCC® CRM-HTB-26™), 22Rv1 (ATCC® CRL-2505™), HCT-116 (ATCC® CCL-247™) and PC3 (ATCC® CRL-1435™) cells were maintained in Roswell Park Memorial Institute 1640 medium (RPMI; Euroclone, ECB9006L) supplemented with 10% fetal bovine serum (Euroclone; ECS0180L), 2 mM L-glutamine, 100 units/mL penicillin and […] streptomycin at 37° C. in an atmosphere of 5% CO2/air. […]
(§1) Cell lines were seeded at appropriate densities in 2 mL growth medium in 6-wells culture plates 24 hours before the treatment with the inhibitor compounds. […] Cells were incubated 48 hours with drugs and, then, cell viability was evaluated.
(§2) Cells were detached from each well of the 6-wells plates with 300 μL of Trypsin and suspended in culture medium to a final volume of 1 mL. Cell viability was then assessed through cell counting. Cells were diluted in 1:50 ratio of an isotonic buffered diluent, Isoton (Backman Coulter), following the manufacturer's instructions, and counted using an automated cell counter (Z2 series Coulter Counter, Beckman Coulter). […]

Data set [2] has as its system Human cervical carcinoma cell line (HeLa). The experiment in a line: Cytotoxicity test / growth inhibition, HeLa. The following applies: 48 hours, cell counting, mM. The class given is cell-based. The protocol:
(§3) Cells were purchased from American Type Culture Collection (ATCC, Manassas, Va., USA). The LNCaP (ATCC® CRL-1740™), A549 (ATCC® CCL-185™), MDA-MB-231 (ATCC® CRM-HTB-26™), 22Rv1 (ATCC® CRL-2505™), HCT-116 (ATCC® CCL-247™) and PC3 (ATCC® CRL-1435™) cells were maintained in Roswell Park Memorial Institute 1640 medium (RPMI; Euroclone, ECB9006L) supplemented with 10% fetal bovine serum (Euroclone; ECS0180L), 2 mM L-glutamine, 100 units/mL penicillin and […] streptomycin at 37° C. in an atmosphere of 5% CO2/air. DU145 (ATCC® HTB-81™), and DAOY (ATCC® HTB-186™) cells were maintained in Eagle's minimal essential medium (EMEM; Euro-clone, ECM0445L) supplemented with 10% fetal bovine serum (Euroclone; ECS0180L), 2 mM L-glutamine, 100 units/ml penicillin and […] streptomycin at 37° C. in an atmosphere of 5% CO2/air. SH-SY5Y (ATCC® CRL-2266™), DBRTG (ATCC® CRL-2020™), HeLa (ATCC® CCL-2™), HN6 cells (kindly provided by Dr Silvio Gutkind, UCSD Medical Center, Moores Cancer Center USA, Chen J. J et al, Oncotarget 2013, 4, 206-217)), U2OS (ATCC® HTB-96™), RD18 cells (kindly provided by Dr P. Boccuni Memorial Sloan-Kettering Cancer Center, New York, USA Vella S. et al. Clin Epigenetics. […]
as §1, §2

Data set [3] has as its system Human Glioblastoma cell line (U87). In words: Cytotoxicity test / growth inhibition, U87. The class given is cell-based. Conditions: U87, 48 hours, cell counting, mM. The protocol:
(§4) Cell lines were seeded at appropriate densities in 2 mL growth medium in 6-wells culture plates 24 hours before the treatment with the inhibitor compounds. After 24 h the culture medium was removed and fresh medium containing increasing concentrations of chemical compounds was added to cells. The fixed final concentrations were: 0.1 μM, 1 μM, 10 μM, 100 μM. DMSO was the vehicle used for dilution of the compounds and its final concentration on cells was less than 0.2%. Medium-only containing wells were included as controls. Cells were incubated 48 hours with drugs and, then, cell viability was evaluated.
as §2, with “Coulter). Each cell count was performed in three replicates. The values corresponding to the relative survival of cells in presence of each chemical compound at single concentrations were normalized to the untreated controls.” for “Coulter).”

Data set [4] is described as follows: Microsomal Stability Assay (HLM). The class given is in vitro ADME. The following applies: human liver microsomes, 37° C., 60 min, NADPH-generating system; percentage of not metabolized compound. The source says: For the quantification was used an LC-MS system consisted of a Varian apparatus (Varian Inc) including a vacuum solvent degassing unit, two pumps (212-LC), a Triple Quadrupole MSD (Mod. 320-LC) mass spectrometer with ES interface and Varian MS Workstation System Control Vers. 6.9 software. Chromatographic separation was obtained using a Pursuit C18 column (50×2.0 mm) (Varian) with 3 μm particle size and gradient elution: eluent A being ACN and eluent B consisting of water. […] The flow rate was 0.2 mL min^−1 and injection volume was 5 μL. The instrument operated in positive mode and parameters were: detector 1850 V, drying gas pressure 25.0 psi, desolvation temperature 300.0° C., nebulizing gas 40.0 psi, needle 5000 V and shield 600 V. Nitrogen was used as nebulizer gas and drying gas. Collision induced dissociation was performed using Argon as the collision gas at a pressure of 1.8 mTorr in the collision cell. Microsomal Stability Assay. […] The reaction was stopped by cooling on ice and adding 1.0 mL of acetonitrile. The reaction mixtures were then centrifuged, and the parent drug and metabolites were subsequently determined by LC-UV-MS. Chromatographic analysis was performed with an Agilent 1100 LC/MSD VL system (G1946C) (Agilent Technologies, Palo Alto, Calif.) constituted by a vacuum solvent degassing unit, a binary high-pressure gradient pump, an 1100 series UV detector, and an 1100 MSD model VL benchtop mass spectrometer.
Chromatographic separation was obtained using a Varian Polaris C18-A column (150-4.6 mm, 5 μm particle size) and gradient elution: eluent A being ACN and eluent B consisting of water. […] The flow rate was 0.8 mL min^−1 and injection volume was 20 μL.
The Agilent 1100 series mass spectra detection (MSD) single-quadrupole instrument was equipped with the orthogonal spray API-ES (Agilent Technologies, Palo Alto, Calif.). Nitrogen was used as nebulizing and drying gas. The pressure of the nebulizing gas, the flow of the drying gas, the capillary voltage, the fragmentor voltage, and the vaporization temperature were set at 40 psi, 9 L/min, 3000 V, 70 V, and 350° C., respectively. UV detection was monitored at 280 nm. The LC-ESI-MS determination was performed by operating the MSD in the positive ion mode. Spectra were acquired over the scan range m/z 100-1500 using a step size of 0.1 u. The percentage of not metabolized compound was calculated by comparison with reference solutions.
Background: Liver microsomes are a subcellular fraction often used to study metabolism.

The subject of data set [5] is Human breast adenocarcinoma cell line (MDA-MB-231). The experiment in a line: Cytotoxicity test / growth inhibition, MDA-MB-231. The following applies: MDA-MB-231, 48 hours, cell counting. The class given is cell-based. The protocol: (§5) Cells were purchased from American Type Culture Collection (ATCC, Manassas, Va., USA). The LNCaP (ATCC® CRL-1740™), A549 (ATCC® CCL-185™), MDA-MB-231 (ATCC® CRM-HTB-26™), 22Rv1 (ATCC® CRL-2505™), HCT-116 (ATCC® CCL-247™) and PC3 (ATCC® CRL-1435™) cells were maintained in Roswell Park Memorial Institute 1640 medium (RPMI; Euroclone, ECB9006L) supplemented with 10% fetal bovine serum (Euroclone; ECS0180L), 2 mM L-glutamine, 100 units/mL penicillin and […] streptomycin at 37° C. in an atmosphere of 5% CO2/air. DU145 (ATCC® HTB-81™), and DAOY (ATCC® HTB-186™) cells were maintained in Eagle's minimal essential medium (EMEM; Euro-clone, ECM0445L) supplemented with 10% fetal bovine serum (Euroclone; ECS0180L), 2 mM L-glutamine, 100 units/ml penicillin and […] streptomycin at 37° C. in an atmosphere of 5% CO2/air. SH-SY5Y (ATCC® CRL-2266™), DBRTG (ATCC® CRL-2020™), HeLa (ATCC® CCL-2™), HN6 cells (kindly provided by Dr Silvio Gutkind, UCSD Medical Center, Moores Cancer Center USA, Chen J. J et al, Oncotarget 2013, 4, 206-217)), U2OS (ATCC® HTB-96™), RD18 cells (kindly provided by Dr P. Boccuni Memorial Sloan-Kettering Cancer Center, New York, USA Vella S. et al. Clin Epigenetics. 2015 6; 7-82), cells were maintained in Dulbecco's modified Eagle's medium (DMEM; Euroclone, ECB7501L) supplemented with 10% fetal bovine serum (Euroclone; ECS0180L), 2 mM L-glutamine, 100 units/ml penicillin and […] streptomycin at 37° C. in an atmosphere of 5% CO2/air.
as §4
(§6) Cells were detached from each well of the 6-wells plates with 300 μL of Trypsin and suspended in culture medium to a final volume of 1 mL. Cell viability was then assessed through cell counting. Cells were diluted in 1:50 ratio of an isotonic buffered diluent, Isoton (Backman Coulter), following the manufacturer's instructions, and counted using an automated cell counter (Z2 series Coulter Counter, Beckman Coulter). Each cell count was performed in three replicates. The values corresponding to the relative survival of cells in presence of each chemical compound at single concentrations were normalized to the untreated controls. Then, the half maximal inhibitory concentration (IC50) value, which represent the drug concentration that is required to induce a 50% growth inhibition in vitro, was calculated with GraphPad Prism 6.0 software using the best fitting sigmoid curve.

A short description of data set [6]: Parallel Artificial Membrane Permeability Assay (PAMPA), GI. The class given is in vitro ADME. Conditions: GI (intestinal) PAMPA, value in brackets. The protocol: Parallel Artificial Membrane Permeability Assay (PAMPA). Donor solution (0.5 mM) was prepared by diluting 1 mM dimethylsulfoxide (DMSO) compound stock solution using phosphate buffer (pH 7.4, 0.025 M). Filters were coated with 5 μL of a 1% (w/v) dodecane solution of phosphatidylcholine prepared from CHCl3 solution 10% w/v, for intestinal permeability. Donor solution (150 μL) was added to each well of the filter plate. To each well of the acceptor plate were added 300 μL of solution (50% DMSO in phosphate buffer). All compounds were tested in three different plates on different days. The sandwich was incubated for 5 h at room temperature under gentle shaking. After the incubation time, the plates were separated, and samples were taken from both receiver and donor sides and analyzed using LC with UV detection at 280 nm.
LC analysis were performed with a Varian Prostar HPLC system (Varian Analytical Instruments, USA) equipped with a binary pump with a manual injection valve and model Prostar 325 UV-VIS Detector. Chromatographic separations were conducted using a Polaris C18-A column (150-4.6 mm, 5 μm particle size) at a flow rate of 0.8 mL min^−1 with a mobile phase composed of 60% ACN/40% H2O.
Permeability (Papp) for PAMPA was calculated according to the following equation, obtained from Wohnsland and Faller and Sugano et al. equation with some modification in order to obtain permeability values in cm s^−1,
where VA is the volume in the acceptor well, VD is the volume in the donor well (cm^3), A is the “effective area” of the membrane (cm^2), t is the incubation time (s) and r the ratio between drug concentration in the acceptor and equilibrium concentration of the drug in the total volume (VD+VA). Drug concentration is estimated by using the peak area integration.
Membrane retentions (%) were calculated according to the following equation: […]
where r is the ratio between drug concentration in the acceptor and equilibrium concentration, D, A, and Eq represented drug concentration in the donor, acceptor and equilibrium solution, respectively.
(In general: The PAMPA barrier holds no transporters, so it reflects passive diffusion.)

Data set [7] deals with Human adenocarcinomic alveolar basal epithelial cell line (A549). In words: Cytotoxicity test / growth inhibition, A549. Conditions: A549, 48 hours, cell counting. The class given is cell-based. The protocol:
as §5, §4, §6

Data set [8] deals with Human Prostate cell line derived from brain metastasis (DU-145). In words: Cytotoxicity test / growth inhibition, DU-145. The class given is cell-based. Conditions: DU-145, 48 hours, cell counting. The protocol:
as §5, §4
as §2, with “Coulter). Each cell count was performed in three replicates. The values corresponding to the relative survival of cells in presence of each chemical compound at single concentrations were normalized to the untreated controls.” for “Coulter).”

Data set [9] has as its target T1, Human recombinant DDX3 (DDX3 wt helicase) (Homo sapiens, UniProt O00571).
T1 construct: made in house
In words: Helicase assay (anti-enzymatic activity against the DDX3 helicase). The class given is biochemical. Conditions: DDX3 helicase activity, dsRNA unwinding; n.a = Compound not active; read-out: ID50 (the source's name). The protocol: The helicase activity of DDX3 wt was monitored by measuring the conversion of a double stranded (ds) RNA (labelled at the 5′-end of one strand with a 6-FAM fluorescent) into single stranded (ss) nucleic acid. A final concentration of 25 nM RNA substrate was used in the experiments, unless otherwise stated. Reactions were performed in 50 mM TrisHCl pH 7.5, 1 mM DTT, 0.2 mg/ml BSA, 5% glycerol and 100 μM ATP, 10 mM MgCl2 at 37° C. degrees for 10′ and stopped by adding EDTA 50 mM pH 8. Products were separated through non-denaturating 8% PAGE at 5 W for 4 hours in TBE buffer at 4° C. Substrates and products were quantified by laser scanning densitometry (Thyphoon-TRIO, GE Healthcare).
Human recombinant DDX3 was cloned, expressed and purified as described (Franca et al. Proteins 2007, 67, 1128-37).

The test system of data set [10] is Human Prostate cancer cell line (PC3). In words: Cytotoxicity test / growth inhibition, PC3. The class given is cell-based. The following applies: PC3, 48 hours, cell counting. The protocol: as §3, §1, §2

Consider 3 compounds from US11000512B2, “Use of DDX3 inhibitors as antiproliferative agents” (AZIENDA OSPEDALIERA UNIVERSITARIA SENESE, priority 2016, dated 2021).

Structures are written as SMILES.

T1 sequence (O00571 whole entry): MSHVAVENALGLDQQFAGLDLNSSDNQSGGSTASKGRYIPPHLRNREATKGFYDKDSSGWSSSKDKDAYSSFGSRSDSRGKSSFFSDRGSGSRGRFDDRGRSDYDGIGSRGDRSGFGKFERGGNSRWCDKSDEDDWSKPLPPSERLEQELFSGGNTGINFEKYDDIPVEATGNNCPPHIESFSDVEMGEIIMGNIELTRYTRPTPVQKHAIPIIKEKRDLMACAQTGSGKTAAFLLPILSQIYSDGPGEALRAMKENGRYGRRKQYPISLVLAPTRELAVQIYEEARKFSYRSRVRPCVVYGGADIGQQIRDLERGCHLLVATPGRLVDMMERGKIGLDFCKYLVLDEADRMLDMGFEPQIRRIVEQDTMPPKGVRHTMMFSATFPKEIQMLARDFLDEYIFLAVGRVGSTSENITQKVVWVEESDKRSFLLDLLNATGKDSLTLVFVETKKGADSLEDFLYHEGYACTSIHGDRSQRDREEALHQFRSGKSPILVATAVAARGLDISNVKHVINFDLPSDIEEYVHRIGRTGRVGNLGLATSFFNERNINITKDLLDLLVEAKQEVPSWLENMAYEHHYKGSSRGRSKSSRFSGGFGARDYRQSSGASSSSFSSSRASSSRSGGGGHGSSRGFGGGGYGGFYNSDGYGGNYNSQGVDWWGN

In the case of `CCCCc1cn(-c2ccc(NC(=O)Nc3ccccc3C)cc2)nn1` [Compound 20a, 1-(4-(4-butyl-1H-1,2,3-triazol-1-yl)phenyl)-3-o-tolylurea], the IC50 in data set [1] was found to be 149 µM; in data set [2], 0.054 mM; in data set [3], 0.037 mM; in data set [5], 18.7 µM. In data set [4], this compound showed a Sability % of 99%. Moreover, in [6], the “PAMPA GI (RM %) membrane retention” value amounted to 19.1%.

In [4], `CCCCc1cn(-c2ccc(NC(=O)Nc3ccccc3C(F)(F)F)cc2F)nn1` [Compound 81, 1-(4-(4-butyl-1H-1,2,3-triazol-1-yl)-3-fluorophenyl)-3-(2-(trifluoromethyl)phenyl)urea] displayed a Sability % of 94%. Also, the IC50 in data set [5] was found to be 25.1 µM. In data set [6], the “PAMPA GI (RM %) membrane retention” value was found to be 30.4%.

Take `CCCCc1nnc(-c2ccc(NC(=O)Nc3ccccc3C(F)(F)F)cc2)[nH]1` [Compound 119, 1-(4-(5-butyl-4H-1,2,4-triazol-3-yl)phenyl)-3-(2-(trifluoromethyl)phenyl)urea]: the IC50 in [7] amounted to 14 µM; in data set [8] it was 12.9 µM; in [9], 1 µM; in data set [10], 46.3 µM.
